From PubChem BioAssay (NCI)
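Where inhibition never reached the appropriate level, the endpoint shown equals the highest concentration tested. Otherwise, values were interpolated linearly from a five-concentration, 48-hour dose response in 96-well plates. At the TGI there is no net growth.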 Where a SMILES comes first, the peptide text is derived from it. [ ]: non-standard residue; d: D form. The star is where a group is joined. ξ: configuration not given here. Cbz = O=C(OCc1ccccc1)*; ξK = NCCCCC(N)C(=O)O

Experiments:
Test in all cases: growth of human tumour cells (NCI), 48 h
[1] = test system: 786-0 renal
[2] = test system: A549 NSCLC
[3] = test system: ACHN renal
[4] = test system: CCRF-CEM leukemia
[5] = test system: DU-145 prostate
[6] = test system: EKVX NSCLC
[7] = test system: HCC-2998 colon
[8] = test system: HCT-116 colon
[9] = test system: HCT-15 colon
[10] = test system: HL-60(TB) leukemia
[11] = test system: HOP-92 NSCLC
[12] = test system: HS 578T breast
[13] = test system: HT29 colon
[14] = test system: IGROV1 ovarian
[15] = test system: K-562 leukemia
[16] = test system: KM12 colon
[17] = test system: LOX IMVI melanoma
[18] = test system: M14 melanoma
[19] = test system: MALME-3M melanoma
[20] = test system: MCF7 breast
[21] = test system: MDA-MB-435
[22] = test system: MDA-N
[23] = test system: MOLT-4 leukemia
[24] = test system: NCI-H226 lung
[25] = test system: NCI-H460 lung
[26] = test system: NCI-H522 lung
[27] = test system: NCI/ADR-RES ovarian
[28] = test system: OVCAR-3 ovarian
[29] = test system: OVCAR-4 ovarian
[30] = test system: OVCAR-5 ovarian
[31] = test system: OVCAR-8 ovarian
[32] = test system: PC-3 prostate
[33] = test system: RPMI-8226 leukemia
[34] = test system: SF-268 CNS
[35] = test system: SF-295 CNS
[36] = test system: SF-539 CNS
[37] = test system: SK-MEL-2 melanoma
[38] = test system: SK-MEL-28 melanoma
[39] = test system: SK-MEL-5 melanoma
[40] = test system: SK-OV-3 ovarian
[41] = test system: SN12C renal
[42] = test system: SNB-19 CNS
[43] = test system: SNB-75 CNS
[44] = test system: SW-620 colon
[45] = test system: T-47D breast
[46] = test system: TK-10 renal
[47] = test system: U251 CNS
[48] = test system: UACC-257 melanoma
[49] = test system: A498 renal
[50] = test system: CAKI-1 renal
[51] = test system: COLO 205 colon
[52] = test system: HOP-62 NSCLC
[53] = test system: MDA-MB-231 breast
[54] = test system: NCI-H23 lung
[55] = test system: RXF 393 renal
[56] = test system: SR leukemia
[57] = test system: UACC-62 melanoma
[58] = test system: UO-31 renal

CC[C@H]1C[C@@H](O)[C@@H]2[C@H](O)[C@H](O)CN2C1
TGI [1]: > 100 µM
TGI [2]: > 100 µM
TGI [3]: > 100 µM
TGI [4]: > 100 µM
TGI [5]: > 100 µM
TGI [6]: > 100 µM
TGI [7]: > 100 µM
TGI [8]: > 100 µM
TGI [9]: > 100 µM
TGI [10]: > 100 µM
TGI [11]: > 100 µM
TGI [12]: > 100 µM
TGI [13]: > 100 µM
TGI [14]: > 100 µM
TGI [15]: > 100 µM
TGI [16]: > 100 µM
TGI [17]: > 100 µM
TGI [18]: > 100 µM
TGI [19]: > 100 µM
TGI [20]: > 100 µM
TGI [21]: > 100 µM
TGI [22]: > 100 µM
TGI [23]: > 100 µM
TGI [24]: > 100 µM
TGI [25]: > 100 µM
TGI [26]: > 100 µM
TGI [27]: > 100 µM
TGI [28]: > 100 µM
TGI [29]: > 100 µM
TGI [30]: > 100 µM
TGI [31]: > 100 µM
TGI [32]: > 100 µM
TGI [33]: > 100 µM
TGI [34]: > 100 µM
TGI [35]: > 100 µM
TGI [36]: > 100 µM
TGI [37]: > 100 µM
TGI [38]: > 100 µM
TGI [39]: > 100 µM
TGI [40]: > 100 µM
TGI [41]: > 100 µM
TGI [42]: > 100 µM
TGI [43]: > 100 µM
TGI [44]: > 100 µM
TGI [45]: > 100 µM
TGI [46]: > 100 µM
TGI [47]: > 100 µM
TGI [48]: > 100 µM

NCCCCC(NC(=O)OCc1ccccc1)C(=O)NCC(N)=O (centres undefined) (Cbz-[ξK]-Gly-NH2)
TGI [1]: > 100 µM
TGI [49]: > 100 µM
TGI [2]: > 100 µM
TGI [3]: > 100 µM
TGI [50]: > 100 µM
TGI [4]: > 100 µM
TGI [51]: > 100 µM
TGI [5]: > 100 µM
TGI [6]: > 100 µM
TGI [7]: > 100 µM
TGI [8]: > 100 µM
TGI [9]: > 100 µM
TGI [52]: > 100 µM
TGI [11]: > 100 µM
TGI [12]: > 100 µM
TGI [13]: > 100 µM
TGI [14]: > 100 µM
TGI [15]: > 100 µM
TGI [16]: > 100 µM
TGI [17]: > 100 µM
TGI [18]: > 100 µM
TGI [19]: > 100 µM
TGI [20]: > 100 µM
TGI [53]: > 100 µM
TGI [21]: > 100 µM
TGI [22]: > 100 µM
TGI [23]: > 100 µM
TGI [24]: > 100 µM
TGI [54]: > 100 µM
TGI [25]: > 100 µM
TGI [26]: > 100 µM
TGI [27]: > 100 µM
TGI [28]: > 100 µM
TGI [29]: > 100 µM
TGI [30]: > 100 µM
TGI [31]: > 100 µM
TGI [32]: > 100 µM
TGI [33]: > 100 µM
TGI [55]: > 100 µM
TGI [34]: > 100 µM
TGI [35]: > 100 µM
TGI [36]: > 100 µM
TGI [37]: > 100 µM
TGI [38]: > 100 µM
TGI [39]: > 100 µM
TGI [40]: > 100 µM
TGI [41]: > 100 µM
TGI [42]: > 100 µM
TGI [43]: > 100 µM
TGI [56]: > 100 µM
TGI [44]: > 100 µM
TGI [45]: > 100 µM
TGI [47]: > 100 µM
TGI [48]: > 100 µM
TGI [57]: > 100 µM
TGI [58]: > 100 µM

COc1ccc(C2=NN(C(=O)c3ccc(Cl)cc3)C(O)(c3cc(F)c(Cl)cc3Cl)C2)cc1OC (centres undefined)
TGI [1]: > 100 µM
TGI [49]: > 100 µM
TGI [3]: > 100 µM
TGI [50]: 98.4 µM
TGI [4]: > 100 µM
TGI [5]: > 100 µM
TGI [6]: > 100 µM
TGI [7]: > 100 µM
TGI [8]: > 100 µM
TGI [9]: > 100 µM
TGI [10]: 2.2 µM
TGI [52]: > 100 µM
TGI [11]: > 100 µM
TGI [12]: > 100 µM
TGI [13]: > 100 µM
TGI [14]: > 100 µM
TGI [15]: > 100 µM
TGI [16]: > 100 µM
TGI [17]: > 100 µM
TGI [18]: > 100 µM
TGI [20]: > 100 µM
TGI [53]: > 100 µM
TGI [21]: > 100 µM
TGI [22]: > 100 µM
TGI [23]: > 100 µM
TGI [24]: > 100 µM
TGI [54]: > 100 µM
TGI [25]: > 100 µM
TGI [26]: > 100 µM
TGI [27]: > 100 µM
TGI [28]: > 100 µM
TGI [29]: > 100 µM
TGI [30]: > 100 µM
TGI [31]: > 100 µM
TGI [32]: > 100 µM
TGI [33]: > 100 µM
TGI [55]: > 100 µM
TGI [34]: > 100 µM
TGI [35]: > 100 µM
TGI [36]: > 100 µM
TGI [37]: > 100 µM
TGI [38]: > 100 µM
TGI [39]: > 100 µM
TGI [40]: > 100 µM
TGI [44]: > 100 µM
TGI [45]: > 100 µM
TGI [46]: > 100 µM
TGI [47]: > 100 µM
TGI [48]: > 100 µM
TGI [58]: 10.9 µM
